This is an account of results in patent US9890153B2, “Substituted 1H-pyrrolo [2, 3-b] pyridine and 1H-pyrazolo [3, 4-b] pyridine derivatives as salt inducible kinase 2 (SIK2) inhibitors” (Arrien Pharmaceuticals LLC, priority 2012, dated 2018).

For data set [1], the target named is SIK2 (QIK) (SEQ ID NO: 11) (Homo sapiens, UniProt Q9H0K1). Briefly: SIK2 kinase assay (radiometric, 10 μM ATP). Type of data set: biochemical. The conditions noted are these: read-out: SIK2 (QIK) (SEQ ID NO: 11) kinase inhibition result. In outline:
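Radiometric filter-binding format: enzyme and substrate peptide incubated with or without compound and ATP mix for 20 min at 30 °C. Reaction stopped with phosphoric acid, captured on filter mats and washed with 0.8% phosphoric acid before counting.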

In data set [2] the target is T1, SIK3 (QSK) (SEQ ID NO: 24) (Homo sapiens, UniProt Q9Y2K2).
T1 construct: Reaction Biology Corporation (assay service, HotSpot panel)
Briefly: Protein kinase assay, SIK3. Type of data set: biochemical. The conditions noted are these: read-out: SIK3 (QSK) (SEQ ID NO: 24) kinase inhibition result. The method, boiled down: (§1)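 Radiometric assay in HEPES pH 7.5 with MgCl2, EGTA, Brij35, BSA, Na3VO4, DTT and 1% DMSO; compound added ~20 min before ATP plus 33P-ATP (10 μM final). IC50 from curve fits.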

A further data set concerns the target T2, SIK1 (SEQ ID NO: 10) (Homo sapiens, UniProt P57059).
T2 construct: Reaction Biology Corporation (assay service, HotSpot panel)
Briefly: Protein kinase assay, SIK1. The conditions noted are these: read-out: SIK1 (SEQ ID NO: 10) kinase inhibition result. Type of data set: biochemical. In outline: as §1

Data set [3] can be described thus: Rat bioavailability and pharmacokinetics. Type of data set: in vivo, male Sprague Dawley rats. On the procedure: The objective of this study was to investigate the bio-availability and pharmacokinetics of a 1H-Pyrrolo[2,3-b]pyridine compound in male Sprague Dawley rats. A total of 6 male rats were used in the study.
Dose formulations were prepared on the day of doing. Blood samples were collected at 0.083 (only IV), 0.25, 0.5, 1, 2, 4, 8 and 24 h post-dose. At each time point, approximately 0.2 mL of blood was withdrawn from each cannulated rat through jugular vein and transferred to a pre-labeled microfuge tube containing 20 μL of 200 mM K2EDTA permL of blood. Following collection of blood sample, equal volume of heparinized saline was flushed into jugular vein of rat. The blood samples were centrifuged at 5000 g for 5 minutes at 4±2° C. The plasma was separated within 30 min of scheduled time and stored below −60° C. until bio-analysis. The plasma samples were analyzed for 114 using a fit-for purpose liquid chromatographic tandem mass spectrometric detection (LC-MS/MS) method with a lower limit of quantification of 2.21 ng/mL. The pharmacokinetic parameters for compound 114 were calculated using the non-compartmental analysis tool of validated WinNonlin® software (Version 5.2).

The test system of another data set is SKOv3 cells. Briefly: SKOv3 i.p. xenograft in nu/nu mice. Type of data set: in vivo. The conditions noted are these: derivatives 30, 60 mg/kg, taxol 10 mg/kg, FIG. 5a-c. On the procedure: We examined the growth-inhibitory effect of 1H-Pyrrolo[2,3-b]pyridine derivatives in-vivo employing an i.p. xenograft model in which nu/nu mice were inoculated i.p. with sensitive cell line SKOv3 cells. One week after inoculation, mice were randomized into six treatment groups receiving vehicle, 1H-Pyrrolo[2,3-b]pyridine derivatives 30, 60 mg/kg, taxol 10 mg/kg and 1H-Pyrrolo[2,3-b]pyridine plus taxol. Drug treatment was well tolerated except i.p. treatment second group, with no apparent toxicity throughout the study. At the end of an experiment, all mice were sacrificed for tumor volume, weight and each mouse examined and recorded at autopsy.

Another data set has as its system SKOV3ip1 tumor cells. Briefly: SKOv3 induced orthotopic murine model. Type of data set: in vivo, athymic female mice. The conditions noted are these: 20-100 mg/kg i.p. or p.o. On the procedure:
Dose-finding experiments initiated by injecting SKOV3ip1 (SKOV3ip1 cells were collected from cultures using either 0.25% trypsin-EDTA (Life Technologies) on the cell line) tumor cells i.p. (2.5×10^5) into athymic female mice. 19 days after tumor cell orthotopic inoculation and when i.p. tumors were palpable, then the mice randomized into 6 dosage groups: 0 mg (vehicle alone, group 1), 20 and 40 mg/kg (groups 2, 3) received 1H-Pyrrolo[2,3-b]pyridine compound i.p QD for 3 days (M/W/F), 60 and 80 mg/kg (groups 4, 5) received 1H-Pyrrolo[2,3-b]pyridine compound p.o BID for 3 days (M/W/F) and 100 mg/kg group received 1H-Pyrrolo[2,3-b]pyridine compound+Taxol p.o BID for 3 days (M/W/F). […] Additionally, we performed quantitative RT-PCR, Western blot, and immunocytology experiments to identify overexpression of SIK2 in control groups against treatment groups along with SIK2 inhibition of transcription factor CREB via phosphorylation of its cofactor TORC2/CRTC2 as a biological indicator of SIK2 kinase activity. Further characterized the effects of SIK2 kinase inhibition on tumor growth inhibition, examined the tumor nodule formation.

Where [4] appears, read: male, Sprague Dawley, plasma, IV 5 mg/kg, rat.
[5] abbreviates: male, Sprague Dawley, plasma, PO 20 mg/kg, rat.

The structures appear in SMILES notation. “Also recorded” adds a separate entry of the source. Where two headings read alike, the source gives them in different places. Where only a bound is given, the exact number is not on record here.

Chain of SIK2 (QIK) (SEQ ID NO: 11) (Q9H0K1 whole entry): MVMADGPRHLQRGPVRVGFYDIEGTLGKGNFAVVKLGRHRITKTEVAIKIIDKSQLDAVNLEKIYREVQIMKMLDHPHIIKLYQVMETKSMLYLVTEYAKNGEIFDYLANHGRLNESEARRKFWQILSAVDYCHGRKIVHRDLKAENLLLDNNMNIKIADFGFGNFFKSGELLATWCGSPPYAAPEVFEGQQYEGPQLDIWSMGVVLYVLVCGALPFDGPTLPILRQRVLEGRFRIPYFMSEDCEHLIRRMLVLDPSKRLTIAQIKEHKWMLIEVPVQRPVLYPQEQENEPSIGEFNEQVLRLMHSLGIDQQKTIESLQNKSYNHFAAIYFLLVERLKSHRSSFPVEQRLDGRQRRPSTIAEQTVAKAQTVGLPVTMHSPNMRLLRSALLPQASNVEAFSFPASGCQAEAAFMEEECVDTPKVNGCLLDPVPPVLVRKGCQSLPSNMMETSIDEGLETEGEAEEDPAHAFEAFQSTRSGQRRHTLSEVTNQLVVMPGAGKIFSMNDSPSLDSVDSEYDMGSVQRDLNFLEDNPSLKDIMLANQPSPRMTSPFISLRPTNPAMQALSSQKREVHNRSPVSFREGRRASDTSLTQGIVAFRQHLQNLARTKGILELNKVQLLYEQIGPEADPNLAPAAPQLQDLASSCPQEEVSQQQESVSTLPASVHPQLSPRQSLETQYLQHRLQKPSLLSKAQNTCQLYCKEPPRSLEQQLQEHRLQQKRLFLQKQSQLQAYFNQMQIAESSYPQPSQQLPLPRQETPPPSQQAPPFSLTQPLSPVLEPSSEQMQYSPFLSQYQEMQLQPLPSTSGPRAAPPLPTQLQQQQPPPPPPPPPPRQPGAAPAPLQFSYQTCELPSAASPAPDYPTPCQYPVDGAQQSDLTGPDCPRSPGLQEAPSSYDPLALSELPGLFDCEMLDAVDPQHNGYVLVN
T1 sequence (Q9Y2K2 whole entry): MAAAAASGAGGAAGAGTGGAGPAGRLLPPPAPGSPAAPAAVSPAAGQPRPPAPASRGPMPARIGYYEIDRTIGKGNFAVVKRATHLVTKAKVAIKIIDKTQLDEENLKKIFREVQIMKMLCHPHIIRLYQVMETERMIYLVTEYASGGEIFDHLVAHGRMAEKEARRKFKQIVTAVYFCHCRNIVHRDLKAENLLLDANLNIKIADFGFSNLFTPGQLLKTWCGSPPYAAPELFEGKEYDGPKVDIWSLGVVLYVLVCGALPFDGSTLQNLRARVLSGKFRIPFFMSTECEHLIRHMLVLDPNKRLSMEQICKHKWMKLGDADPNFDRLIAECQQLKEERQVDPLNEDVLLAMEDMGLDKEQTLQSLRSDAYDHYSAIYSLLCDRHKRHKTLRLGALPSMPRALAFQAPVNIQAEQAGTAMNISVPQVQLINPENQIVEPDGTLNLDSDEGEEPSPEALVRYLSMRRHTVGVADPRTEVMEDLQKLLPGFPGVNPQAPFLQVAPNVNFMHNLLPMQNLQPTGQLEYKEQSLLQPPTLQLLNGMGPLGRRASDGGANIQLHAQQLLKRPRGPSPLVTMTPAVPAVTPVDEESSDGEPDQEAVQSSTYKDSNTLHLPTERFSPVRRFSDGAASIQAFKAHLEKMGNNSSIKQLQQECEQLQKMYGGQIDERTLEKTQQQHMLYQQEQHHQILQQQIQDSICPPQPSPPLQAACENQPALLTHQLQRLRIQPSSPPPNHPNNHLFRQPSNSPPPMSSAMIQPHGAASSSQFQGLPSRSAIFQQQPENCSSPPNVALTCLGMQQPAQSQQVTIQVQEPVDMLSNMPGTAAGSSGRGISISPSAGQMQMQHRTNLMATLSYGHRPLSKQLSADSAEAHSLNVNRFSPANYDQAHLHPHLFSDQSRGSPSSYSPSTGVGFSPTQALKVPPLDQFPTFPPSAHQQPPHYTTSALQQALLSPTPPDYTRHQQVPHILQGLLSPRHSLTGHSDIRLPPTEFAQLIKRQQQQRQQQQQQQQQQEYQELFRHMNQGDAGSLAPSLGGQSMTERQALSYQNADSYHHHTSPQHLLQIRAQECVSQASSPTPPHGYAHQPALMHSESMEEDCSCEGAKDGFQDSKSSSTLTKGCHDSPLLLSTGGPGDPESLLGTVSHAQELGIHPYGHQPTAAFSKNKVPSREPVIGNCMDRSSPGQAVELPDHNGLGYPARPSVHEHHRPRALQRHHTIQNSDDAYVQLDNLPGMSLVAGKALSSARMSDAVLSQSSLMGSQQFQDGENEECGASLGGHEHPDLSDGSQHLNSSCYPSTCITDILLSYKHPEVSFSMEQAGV
T2 sequence (P57059 whole entry): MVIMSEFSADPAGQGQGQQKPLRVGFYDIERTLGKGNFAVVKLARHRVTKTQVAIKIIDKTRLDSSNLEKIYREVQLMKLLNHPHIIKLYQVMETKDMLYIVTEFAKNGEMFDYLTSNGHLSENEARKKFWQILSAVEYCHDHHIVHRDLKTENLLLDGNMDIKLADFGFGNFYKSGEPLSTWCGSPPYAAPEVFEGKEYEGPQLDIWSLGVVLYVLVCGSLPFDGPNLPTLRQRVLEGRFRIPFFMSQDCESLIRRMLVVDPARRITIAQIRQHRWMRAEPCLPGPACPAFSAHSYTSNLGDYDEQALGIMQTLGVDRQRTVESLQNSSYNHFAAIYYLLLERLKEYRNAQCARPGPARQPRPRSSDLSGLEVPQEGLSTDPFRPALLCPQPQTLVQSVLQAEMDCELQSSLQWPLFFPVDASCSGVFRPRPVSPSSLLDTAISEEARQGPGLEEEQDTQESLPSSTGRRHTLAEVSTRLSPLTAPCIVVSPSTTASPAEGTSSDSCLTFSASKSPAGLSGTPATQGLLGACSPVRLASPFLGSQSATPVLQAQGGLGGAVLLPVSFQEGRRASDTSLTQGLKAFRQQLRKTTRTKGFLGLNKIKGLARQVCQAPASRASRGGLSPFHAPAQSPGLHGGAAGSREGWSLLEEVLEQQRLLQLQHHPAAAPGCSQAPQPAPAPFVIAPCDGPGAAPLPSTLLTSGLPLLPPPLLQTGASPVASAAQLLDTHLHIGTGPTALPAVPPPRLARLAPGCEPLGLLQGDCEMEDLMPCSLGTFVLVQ

What is called AUC(0-inf) is the area under the concentration-time curve extrapolated to infinity. Higher therefore signals more exposure. For orientation: AUC(0-t) means the area under the concentration-time curve up to a stated or last time point. The low end stands for low exposure, the high end for high exposure. In general, clearance refers to the rate of elimination divided by the concentration. Read a low clearance as a low capacity for elimination. As usually defined, the half-life is the time in which the quantity being followed falls by half. Read a high half-life as slow loss. Broadly, the Tmax is the time at which the peak concentration occurs. `Fc1cccc(-c2c[nH]c3ncc(-c4ccsc4)cc23)c1Cl` [Example 114, 3-(2-chloro-3-fluorophenyl)-5-(thiophen-3-yl)-1H-pyrrolo[2,3-b]pyridine]: the IC50 in data set [1] was below 0.1 µM; in data set [2], above 1 µM; at SIK1 (SEQ ID NO: 10), above 0.1 µM. In data set [3] (PO 20 mg/kg vs IV 5 mg/kg, from AUCinf and nominal doses), this molecule had an F of 15%. The figures for the AUC(0-inf) in data set [3] (setting [4]) and in data set [3] (setting [5]) were 2620 ± 647 ng·h/mL and 1600 ± 183 ng·h/mL, respectively. Besides, the AUC(0-t) came out at 2600 ± 637 ng·h/mL in data set [3] (setting [4]) and 1580 ± 179 ng·h/mL in data set [3] (setting [5]). The same molecule came in with a clearance in data set [3] (setting [4]) of 33.4 ± 9.57 mL/min/kg. In data set [3] (setting [4]), the half-life was 32.4 ± 3 min. For the same molecule, the Cmax is 3850 ng/mL in data set [3] (male, Sprague Dawley, plasma, IV 5 mg/kg, rat, read-out: Cmax (concentration at time zero)) and 853 ng/mL in data set [3] (male, Sprague Dawley, plasma, PO 20 mg/kg, rat, read-out: Cmax). Also, the Vd in data set [3] (male, Sprague Dawley, plasma, IV 5 mg/kg, rat, read-out: Vss) was determined as 1.61 ± 0.28 L/kg. Further, in data set [3] (male, Sprague Dawley, plasma, PO 20 mg/kg, rat, read-out: Tmax (median)), the Tmax is 15 min.

Take `CC(=O)O[C@H]1C(=O)[C@@]2(C)[C@H]([C@H](OC(=O)c3ccccc3)[C@]3(O)C[C@H](OC(=O)[C@H](O)[C@@H](NC(=O)c4ccccc4)c4ccccc4)C(C)=C1C3(C)C)[C@]1(OC(C)=O)CO[C@@H]1C[C@@H]2O` [taxol]: in the data set with SKOv3 cells, the “antitumor effect (tumor volume, weight, number)” value was “significant antitumor effects; also recorded: inhibited the abdominal tumor growth and tumor cell dissemination”. For the same molecule, the antitumor effect result in the data set on SKOV3ip1 tumor cells is reported as “significant antitumor effects”.
